Experiments:
PDE8 enzymes = system: PDE8 enzymes; parameters: method as in PMID 9671792, PMID 9784418; conditions: ref [6], [11]; cited from earlier work
recombinant human PDE8A = target: T1, recombinant human PDE8A (Homo sapiens, UniProt O60658); test: In vitro PDE assay (Ba(OH)2 precipitation), PDE8A; type: biochemical; conditions: for IC50: 10 nM cAMP substrate
T1 construct: purchased BPS Bioscience Inc
Method: (§1) In vitro PDE assays were performed as previously described, using the Ba(OH)2 precipitation assay, with recombinant human PDE1C, PDE3B, PDE5A1, PDE8A, PDE9A2, PDE10A1, PDE11A4 (BPS Bioscience Inc.), rat PDE2A (BPS Bioscience Inc.), human PDE7A (BIOMOL International), and human PDE4A10 enzymes (gift from Dr. Hengming Ke). Substrate concentrations were 120 nM cGMP (PDE1C), 1 µM cGMP (PDE2A), 30 nM cGMP (PDE3B), 50 nM cAMP (PDE4A), 520 nM cGMP (PDE5A), 10 nM cAMP (PDE7A), 10 nM cAMP (PDE8A), 70 nM cGMP (PDE9A), 40 nM cAMP (PDE10A), and 120 nM cGMP (PDE11A). Reactions were performed in 50 mM Tris·HCl (pH 8.5), 10 mM MgCl2 (for all enzymes except PDE8) or 4 mM MnCl2 (for PDE8A), and 5 mM dithiothreitol, and proceeded for 30 min for PDE8A, 6 min for PDE10A and 15 min for other PDEs, so that reactions were linear with time. Reactions were stopped with 200 µL 0.2 M ZnSO4, after which 5′-AMP was precipitated with 200 µL 0.25 N Ba(OH)2 by centrifugation for 15 min at 14000 rpm. The remaining radioactivity in the supernatant was measured in 4 mL of scintillation fluid. The amount of hydrolysis was generally limited to 30 percent conversion and IC50 values were calculated as the means of three independent experiments. Substrate concentrations were ≤0.1*Km for each enzyme, thus IC50 values approximate the Ki values.

[1] = target: T2, recombinant human PDE10A1 (Homo sapiens, UniProt Q9Y233); test: In vitro PDE assay (Ba(OH)2 precipitation), PDE10A; type: biochemical; conditions: 40 nM cAMP substrate; mean ± SD of three independent experiments
T2 construct: purchased BPS Bioscience Inc
T2 sequence (Q9Y233 1-779 isoform Q9Y233-1): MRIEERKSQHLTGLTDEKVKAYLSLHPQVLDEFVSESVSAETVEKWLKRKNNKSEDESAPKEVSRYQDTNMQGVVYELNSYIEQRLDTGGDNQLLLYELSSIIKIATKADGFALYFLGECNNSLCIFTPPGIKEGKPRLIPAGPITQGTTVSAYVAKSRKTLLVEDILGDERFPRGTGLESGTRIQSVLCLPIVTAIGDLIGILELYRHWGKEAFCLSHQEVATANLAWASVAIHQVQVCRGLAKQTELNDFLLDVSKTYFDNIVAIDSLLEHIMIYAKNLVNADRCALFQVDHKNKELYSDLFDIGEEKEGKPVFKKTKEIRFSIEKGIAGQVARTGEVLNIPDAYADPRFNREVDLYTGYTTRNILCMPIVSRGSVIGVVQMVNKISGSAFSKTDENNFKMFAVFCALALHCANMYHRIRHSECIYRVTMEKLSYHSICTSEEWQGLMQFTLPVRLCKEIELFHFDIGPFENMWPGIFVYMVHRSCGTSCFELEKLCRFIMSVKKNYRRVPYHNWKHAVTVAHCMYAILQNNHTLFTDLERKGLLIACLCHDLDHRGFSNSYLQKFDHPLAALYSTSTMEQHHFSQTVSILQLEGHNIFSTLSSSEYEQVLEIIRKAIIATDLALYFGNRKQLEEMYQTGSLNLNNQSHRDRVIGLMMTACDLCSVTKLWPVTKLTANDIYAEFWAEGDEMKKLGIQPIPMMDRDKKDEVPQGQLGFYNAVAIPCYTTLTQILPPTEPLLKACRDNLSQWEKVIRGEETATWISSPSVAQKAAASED
Method: as §1

MA-10 Leydig tumor cells = test: Progesterone release from MA-10 Leydig tumor cells; type: cell-based, mouse; conditions: 20 µM compound; 2 h
Method: MA-10 Leydig tumor cells were maintained in RPMI medium supplemented with 10% horse serum and seeded in 24 well plates to achieve 60–80% confluency after 2–3 days. Cells were washed with serum free medium twice and incubated in a 5% CO2 incubator at 37°C for 2 h. Following incubation, cells were treated with BC8-15, BC8-15A, or BC8-15C by replacing the media with 300 µL RPMI medium containing test compounds or vehicle. Media were collected after incubation for 2 h at 37°C. Progesterone levels in the media were measured using a progesterone ELISA kit (Neogen, Lexington, KY). Protein levels were determined by lysing cells in lysis buffer (50 mM Tris HCl (pH 7.5), 150 mM NaCl, 1% Triton X-100, 2 mM PMSF (supplemented with a Complete Protease Inhibitor Tablet (Roche, Nutley, NJ)) and measuring the protein concentration using a BCA protein assay kit (Pierce, Rockford, IL).

human PDE4A10 = target: T3, human PDE4A10 (Homo sapiens, UniProt P27815); test: In vitro PDE assay (Ba(OH)2 precipitation), PDE4A; type: biochemical; conditions: 50 nM cAMP substrate
T3 construct: gift from Dr. Hengming Ke

recombinant human PDE5A1 = target: T4, recombinant human PDE5A1 (Homo sapiens, UniProt O76074); test: In vitro PDE assay (Ba(OH)2 precipitation), PDE5A; type: biochemical; conditions: 520 nM cGMP substrate; mean ± SD of three independent experiments
T4 construct: purchased BPS Bioscience Inc
Method: as §1

rat PDE2A = target: T5, rat PDE2A (Rattus norvegicus, UniProt Q01062); test: In vitro PDE assay (Ba(OH)2 precipitation), PDE2A; type: biochemical; conditions: 1 µM cGMP substrate; mean ± SD of three independent experiments
T5 construct: purchased BPS Bioscience Inc
T5 sequence (Q01062 1-928): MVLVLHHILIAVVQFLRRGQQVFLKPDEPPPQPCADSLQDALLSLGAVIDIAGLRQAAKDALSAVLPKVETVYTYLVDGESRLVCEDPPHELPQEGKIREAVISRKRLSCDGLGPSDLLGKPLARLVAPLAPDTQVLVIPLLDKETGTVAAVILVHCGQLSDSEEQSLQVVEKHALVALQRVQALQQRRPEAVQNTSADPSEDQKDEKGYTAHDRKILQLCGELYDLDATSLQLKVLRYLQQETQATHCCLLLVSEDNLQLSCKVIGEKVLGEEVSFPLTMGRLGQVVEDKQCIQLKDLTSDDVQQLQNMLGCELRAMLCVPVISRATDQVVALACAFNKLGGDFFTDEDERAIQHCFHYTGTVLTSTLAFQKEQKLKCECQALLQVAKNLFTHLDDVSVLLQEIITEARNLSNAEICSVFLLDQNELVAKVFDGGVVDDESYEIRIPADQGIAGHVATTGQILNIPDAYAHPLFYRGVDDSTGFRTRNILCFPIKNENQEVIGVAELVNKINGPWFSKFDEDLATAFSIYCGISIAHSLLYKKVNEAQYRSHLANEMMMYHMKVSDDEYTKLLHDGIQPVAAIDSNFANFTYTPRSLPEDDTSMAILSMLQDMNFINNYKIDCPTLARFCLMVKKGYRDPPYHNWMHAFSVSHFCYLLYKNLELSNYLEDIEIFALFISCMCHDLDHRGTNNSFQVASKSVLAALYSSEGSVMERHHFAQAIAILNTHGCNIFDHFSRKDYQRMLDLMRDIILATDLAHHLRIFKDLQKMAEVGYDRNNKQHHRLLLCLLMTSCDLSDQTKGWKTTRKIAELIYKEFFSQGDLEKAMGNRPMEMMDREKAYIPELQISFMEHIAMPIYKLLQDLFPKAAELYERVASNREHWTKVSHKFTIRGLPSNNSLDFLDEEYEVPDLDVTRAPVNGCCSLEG
Method: as §1

[2] = target: T6, recombinant human PDE11A4 (Homo sapiens, UniProt Q9HCR9); test: In vitro PDE assay (Ba(OH)2 precipitation), PDE11A; type: biochemical; conditions: 120 nM cGMP substrate; mean ± SD of three independent experiments
T6 construct: purchased BPS Bioscience Inc
T6 sequence (Q9HCR9 whole entry): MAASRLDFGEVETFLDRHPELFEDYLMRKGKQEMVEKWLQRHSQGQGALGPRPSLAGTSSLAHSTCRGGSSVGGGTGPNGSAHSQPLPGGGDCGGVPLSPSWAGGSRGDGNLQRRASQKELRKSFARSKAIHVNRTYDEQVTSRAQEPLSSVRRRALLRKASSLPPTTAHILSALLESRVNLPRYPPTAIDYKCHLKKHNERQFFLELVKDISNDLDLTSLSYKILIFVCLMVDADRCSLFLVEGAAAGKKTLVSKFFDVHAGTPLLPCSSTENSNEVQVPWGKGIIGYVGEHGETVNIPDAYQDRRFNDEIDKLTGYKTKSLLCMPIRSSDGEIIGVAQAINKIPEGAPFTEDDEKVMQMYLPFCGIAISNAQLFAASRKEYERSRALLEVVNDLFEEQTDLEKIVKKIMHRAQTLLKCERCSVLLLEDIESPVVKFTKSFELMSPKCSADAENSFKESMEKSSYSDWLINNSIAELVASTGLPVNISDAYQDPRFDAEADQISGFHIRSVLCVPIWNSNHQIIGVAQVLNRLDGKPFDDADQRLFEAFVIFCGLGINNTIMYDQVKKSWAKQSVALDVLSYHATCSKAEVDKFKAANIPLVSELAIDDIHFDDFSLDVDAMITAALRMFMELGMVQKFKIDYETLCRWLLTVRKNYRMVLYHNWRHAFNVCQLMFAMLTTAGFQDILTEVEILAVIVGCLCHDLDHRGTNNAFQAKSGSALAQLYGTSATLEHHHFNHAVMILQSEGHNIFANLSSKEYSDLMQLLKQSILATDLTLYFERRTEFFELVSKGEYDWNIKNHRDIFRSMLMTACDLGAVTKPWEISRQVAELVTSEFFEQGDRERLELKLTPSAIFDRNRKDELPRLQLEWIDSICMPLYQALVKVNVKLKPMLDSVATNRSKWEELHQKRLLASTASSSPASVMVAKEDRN
Method: as §1

human PDE7A = target: T7, human PDE7A (Homo sapiens, UniProt Q13946); test: In vitro PDE assay (Ba(OH)2 precipitation), PDE7A; type: biochemical; conditions: for IC50: 10 nM cAMP substrate, mean ± SD of three independent experiments
T7 construct: purchased BIOMOL International
T7 sequence (Q13946 whole entry): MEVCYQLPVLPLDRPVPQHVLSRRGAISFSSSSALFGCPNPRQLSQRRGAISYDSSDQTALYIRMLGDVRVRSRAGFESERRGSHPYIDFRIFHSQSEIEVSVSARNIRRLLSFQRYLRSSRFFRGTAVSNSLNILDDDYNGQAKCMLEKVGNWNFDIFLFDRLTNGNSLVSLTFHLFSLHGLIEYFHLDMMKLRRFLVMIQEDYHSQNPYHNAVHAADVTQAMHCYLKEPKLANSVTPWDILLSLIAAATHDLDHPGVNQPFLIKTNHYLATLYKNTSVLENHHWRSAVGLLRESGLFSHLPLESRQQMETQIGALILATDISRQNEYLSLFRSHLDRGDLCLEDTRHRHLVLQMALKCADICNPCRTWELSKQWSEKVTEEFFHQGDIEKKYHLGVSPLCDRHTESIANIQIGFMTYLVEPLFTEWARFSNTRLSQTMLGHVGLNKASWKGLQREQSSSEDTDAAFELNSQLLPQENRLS

recombinant human PDE3B = target: T8, recombinant human PDE3B (Homo sapiens, UniProt Q13370); test: In vitro PDE assay (Ba(OH)2 precipitation), PDE3B; type: biochemical; conditions: 30 nM cGMP substrate; three independent experiments
T8 construct: purchased BPS Bioscience Inc
T8 sequence (Q13370 whole entry): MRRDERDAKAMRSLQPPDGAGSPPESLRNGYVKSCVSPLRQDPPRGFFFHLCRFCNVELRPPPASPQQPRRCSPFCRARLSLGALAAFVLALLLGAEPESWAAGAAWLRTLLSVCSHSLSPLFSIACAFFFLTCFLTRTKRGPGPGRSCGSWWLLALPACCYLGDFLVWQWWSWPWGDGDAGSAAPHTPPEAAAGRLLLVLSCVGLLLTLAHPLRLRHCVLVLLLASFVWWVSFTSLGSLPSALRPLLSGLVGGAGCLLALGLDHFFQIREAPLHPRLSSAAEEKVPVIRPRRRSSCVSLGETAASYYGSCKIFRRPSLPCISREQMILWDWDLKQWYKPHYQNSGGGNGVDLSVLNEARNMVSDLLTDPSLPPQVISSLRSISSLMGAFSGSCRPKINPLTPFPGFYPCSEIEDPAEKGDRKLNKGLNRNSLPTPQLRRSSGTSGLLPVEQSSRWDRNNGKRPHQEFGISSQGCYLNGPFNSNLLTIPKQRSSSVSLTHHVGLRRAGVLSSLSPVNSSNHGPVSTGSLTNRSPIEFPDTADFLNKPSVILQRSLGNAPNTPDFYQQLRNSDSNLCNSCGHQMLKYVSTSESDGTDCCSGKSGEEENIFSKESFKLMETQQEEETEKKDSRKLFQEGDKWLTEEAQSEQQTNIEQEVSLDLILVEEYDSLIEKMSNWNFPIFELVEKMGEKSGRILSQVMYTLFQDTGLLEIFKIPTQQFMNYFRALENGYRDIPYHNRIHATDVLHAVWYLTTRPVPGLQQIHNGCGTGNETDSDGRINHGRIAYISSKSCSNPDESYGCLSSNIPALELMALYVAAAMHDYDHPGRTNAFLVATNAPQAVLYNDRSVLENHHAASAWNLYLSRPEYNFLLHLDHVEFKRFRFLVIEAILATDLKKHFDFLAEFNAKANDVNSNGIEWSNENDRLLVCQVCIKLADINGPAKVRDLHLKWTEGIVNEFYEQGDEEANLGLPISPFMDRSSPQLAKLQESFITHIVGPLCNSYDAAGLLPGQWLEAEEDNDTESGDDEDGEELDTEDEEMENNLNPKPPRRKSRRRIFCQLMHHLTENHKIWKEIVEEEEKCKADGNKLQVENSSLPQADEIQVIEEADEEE
Method: as §1

recombinant human PDE1C = target: T9, recombinant human PDE1C (Homo sapiens, UniProt Q14123); test: In vitro PDE assay (Ba(OH)2 precipitation), PDE1C; type: biochemical; conditions: 120 nM cGMP substrate; mean ± SD of three independent experiments
T9 construct: purchased BPS Bioscience Inc
T9 sequence (Q14123 whole entry): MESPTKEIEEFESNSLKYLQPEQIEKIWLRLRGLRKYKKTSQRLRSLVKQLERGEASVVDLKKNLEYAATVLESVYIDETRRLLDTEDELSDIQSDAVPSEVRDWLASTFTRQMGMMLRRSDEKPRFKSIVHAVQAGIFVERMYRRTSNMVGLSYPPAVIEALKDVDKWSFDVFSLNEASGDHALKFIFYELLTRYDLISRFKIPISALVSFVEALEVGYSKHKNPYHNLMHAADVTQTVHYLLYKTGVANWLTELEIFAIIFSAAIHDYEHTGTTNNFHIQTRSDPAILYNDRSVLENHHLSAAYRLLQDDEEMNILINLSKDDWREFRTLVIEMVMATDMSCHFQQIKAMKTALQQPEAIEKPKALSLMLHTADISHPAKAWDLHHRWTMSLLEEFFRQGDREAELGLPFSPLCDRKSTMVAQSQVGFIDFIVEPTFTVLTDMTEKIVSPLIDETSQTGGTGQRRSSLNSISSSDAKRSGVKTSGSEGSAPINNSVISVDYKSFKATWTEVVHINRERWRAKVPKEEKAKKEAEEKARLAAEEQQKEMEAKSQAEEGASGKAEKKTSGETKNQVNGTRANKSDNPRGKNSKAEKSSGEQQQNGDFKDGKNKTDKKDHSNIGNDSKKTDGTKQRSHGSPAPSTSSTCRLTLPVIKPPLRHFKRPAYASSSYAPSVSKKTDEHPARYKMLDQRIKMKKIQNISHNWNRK
Method: as §1

recombinant human PDE9A2 = target: T10, recombinant human PDE9A2 (Homo sapiens, UniProt O76083); test: In vitro PDE assay (Ba(OH)2 precipitation), PDE9A; type: biochemical; conditions: 70 nM cGMP substrate; three independent experiments
T10 construct: purchased BPS Bioscience Inc
Method: as §1

[3] = system: primary Leydig cells from wild type mice; test: Testosterone production from primary Leydig cells, wild type mice; type: cell-based, mouse; conditions: 3 h, rolipram 20 µM, BC8-15 10 µM and 40 µM
Method: (§2) Leydig cells were isolated from testes of wild type and PDE8A^−/−/B^−/− knock-out adult mice as previously described. Digested tissue from decapsulated mouse testis was enriched for interstitial cells by filtration as previously described. Collected cells were resuspended in DMEM/F-12 medium supplemented with 1 mg/mL BSA and 150 µL aliquots were dispensed into 48-well plates. After permitting cells to recover at 37°C for 3 h, 30 µL of media with test compounds or vehicle was added to replicate wells. Media were collected after incubation for 3 h and stored at −20°C. Testosterone released into the media was measured by a testosterone ELISA kit (Neogen, Lexington, KY).

[4] = system: primary Leydig cells from PDE8A−/−/B−/− knock-out mice; test: Testosterone production from primary Leydig cells, PDE8A-/-/B-/- knock-out mice; type: cell-based, mouse; conditions: 3 h, rolipram 20 µM, BC8-15 10 µM and 40 µM
Method: as §2

murine PDE8A1 = system: T11, murine PDE8A1; test: Yeast-based 5FOA growth HTS with PDE8A-expressing S. pombe strain CHP1204; type: cell-based; conditions: Known Bioactives Collection screen
T11 construct: expressed in transfected cells; host or cells: Schizosaccharomyces pombe strain CHP1204 (PDE8A1 integrated at the cgs2 locus)
Method: Cyclic nucleotide-dependent growth in 5FOA medium was monitored in 50 µL cultures in 384-well microtiter plates (untreated, flat clear bottom). Cells were inoculated at an initial cell density of 0.5–2×10^5 cells/mL. Previously described optimized pre-growth conditions for each strain were used to repress the fbp1-ura4^+ reporter prior to inoculation into 5FOA medium, as cells that are already expressing the Ura4 enzyme would be 5FOA-sensitive even upon exposure to a PDE inhibitor [18]. Following a 48-h incubation at 30°C, plates were vortexed and optical densities (600 nm) were measured. The experiments with the PDE8A-expressing strain (CHP1204) were performed with 0.5 mM cAMP in the pre-growth medium and 40 µM cAMP in the 5FOA medium. […]
The suitability and quality of the assay conditions for high throughput screening was evaluated by a Z factor test as previously described, [23], using DMSO (0.2%) as a negative control, and either 5 mM cAMP, 10 µM BC69, or 20 µM BC69 as positive controls. […] After 48 h growth at 30°C, the optical density (OD600) of each well was measured using a plate reader. Composite Z scores were calculated for each compound by scaling the vector [Zscore_A, Zscore_B] by the cosine correlation with the diagonal (i.e. identical Z-scores in both replicates).

[5] = mean ± SD of three independent experiments

T1 sequence (O60658 whole entry): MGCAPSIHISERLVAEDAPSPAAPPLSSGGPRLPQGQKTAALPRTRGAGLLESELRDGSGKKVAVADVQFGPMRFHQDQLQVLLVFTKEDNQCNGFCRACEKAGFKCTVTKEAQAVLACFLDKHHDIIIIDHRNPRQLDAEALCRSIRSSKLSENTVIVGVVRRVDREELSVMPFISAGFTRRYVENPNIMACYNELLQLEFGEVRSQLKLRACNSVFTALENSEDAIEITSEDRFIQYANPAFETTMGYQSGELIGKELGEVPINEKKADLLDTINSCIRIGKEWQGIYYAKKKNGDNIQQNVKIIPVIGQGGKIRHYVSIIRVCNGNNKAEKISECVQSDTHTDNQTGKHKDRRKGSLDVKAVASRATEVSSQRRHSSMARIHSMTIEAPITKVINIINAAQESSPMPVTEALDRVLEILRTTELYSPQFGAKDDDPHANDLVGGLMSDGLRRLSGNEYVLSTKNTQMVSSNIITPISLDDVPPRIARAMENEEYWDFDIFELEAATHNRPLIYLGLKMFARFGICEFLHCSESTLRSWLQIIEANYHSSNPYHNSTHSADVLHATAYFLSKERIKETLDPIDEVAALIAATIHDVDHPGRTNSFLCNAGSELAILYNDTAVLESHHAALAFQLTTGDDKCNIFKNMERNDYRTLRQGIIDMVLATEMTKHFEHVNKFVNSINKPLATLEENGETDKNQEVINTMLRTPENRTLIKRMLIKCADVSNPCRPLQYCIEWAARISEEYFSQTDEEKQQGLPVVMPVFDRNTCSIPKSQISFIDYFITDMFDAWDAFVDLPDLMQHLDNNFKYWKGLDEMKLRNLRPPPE

SMILES	IC50 [1] [nM]	increase in progesterone release compared to untreated cells (MA-10 Leydig tumor cells)	IC50 (recombinant human PDE5A1) [µM]	IC50 (rat PDE2A) [µM]	IC50 [2] [nM]	IC50 (human PDE7A) [µM]	IC50 (recombinant human PDE3B) [µM]	IC50 (recombinant human PDE1C) [µM]	IC50 (recombinant human PDE9A2) [µM]	also measured
CC(C)Cn1c(=O)n(C)c(=O)c2[nH]cnc21 [3-isobutyl-1-methylxanthine (IBMX), 3-isobutyl-1-methylxanthine]										sensitivity of PDE8 enzymes to inhibitor (PDE8 enzymes): insensitive
Cc1nnc2c3ccccc3nc(Nc3cccc(C(=O)O)c3)n12 [BC8-15A]	2300 ± 700	five-fold	> 20	5.2 ± 2	1000	8.88 ± 3.9	> 20	> 20	> 20	IC50 (recombinant human PDE8A; [5]): 1590 ± 300 nM; IC50 (human PDE4A10; [5]): 1590 ± 100 nM
CCc1nnc2c3ccccc3nc(Nc3cccc(C)c3)n12 [BC8-15C]	1500 ± 1200	little or no effect	> 20	> 20	80 ± 50	14.2 ± 6.4	> 20	> 20	> 20	IC50 (recombinant human PDE8A; [5]): 59300 ± 14200 nM
CCc1nnc2c3ccccc3nc(Nc3cccc(C(=O)O)c3)n12 [BC8-15]	1600 ± 200	> 10 fold	16.7 ± 2.3	15.7 ± 2.7	1200 ± 700	6.46	> 20	8.4 ± 3	> 20	testosterone release [3]: dose-dependent elevation; IC50 (recombinant human PDE8A): 280 nM; IC50 (human PDE4A10): 220 nM; increase in testosterone production [4]: two-fold increase; fold less activity against PDE7A (vs PDE8A/PDE4A) (human PDE7A; ratio of IC50 values): 23 fold
OCCN(CCO)c1nc(N2CCCCC2)c2nc(N(CCO)CCO)nc(N3CCCCC3)c2n1 [dipyridamole]										activity in PDE8A yeast growth screen (murine PDE8A1): no activity; sensitivity of PDE8 enzymes to inhibitor (PDE8 enzymes): only weakly inhibited
C[C@]12CC[C@H](O)C[C@@H]1CC[C@@H]1[C@@H]2CC[C@]2(C)C(=O)CC[C@@H]12 [epiandrosterone, reference compound]										composite Z score, 5FOA-resistant growth of PDE8A1-expressing strain (murine PDE8A1; 40 µM cAMP in 5FOA medium, 48 h): 12.9; inhibition at 32 µM (recombinant human PDE8A; 32 µM compound, data not shown): 17%
COc1ccc(C2CNC(=O)C2)cc1OC1CCCC1 (stereo not shown) [rolipram, reference compound]		little or no effect								testosterone release [3]: no response; increase in testosterone production [4]: two-fold increase

— article PMC3743849, “A Yeast-Based Chemical Screen Identifies a PDE Inhibitor That Elevates Steroidogenesis in Mouse Leydig Cells via PDE8 and PDE4 Inhibition” (PLoS ONE, 2013)
